Laboratory results published in PMC5006990 (PLoS ONE, 2016).
In brackets after ≈: the same amount, converted by molar mass.

Legend:
Mtb 365 = test: microbe, parasite or virus in culture; type: cell-based, Mycobacterium tuberculosis; details: Mycobacterium tuberculosis, 365, read-out: MIC (µg/ml) Mtb 365
Mtb 276 = test: microbe, parasite or virus in culture; type: cell-based, Mycobacterium tuberculosis; details: Mycobacterium tuberculosis, 276, read-out: MIC (µg/ml) Mtb 276
Mtb 352 = test: microbe, parasite or virus in culture; type: cell-based, Mycobacterium tuberculosis; details: Mycobacterium tuberculosis, 352, read-out: MIC (µg/ml) Mtb 352
Mtb 56 = test: microbe, parasite or virus in culture; type: cell-based, Mycobacterium tuberculosis; details: Mycobacterium tuberculosis, 56, read-out: MIC (µg/ml) Mtb 56
[1] = system: M. tuberculosis ATCC 35801 (strain Erdman); test: Microtiter broth dilution MIC, Mtb Erdman; details: resistance pattern, S3 Table
Mtb 5 = test: microbe, parasite or virus in culture; type: cell-based, Mycobacterium tuberculosis; details: Mycobacterium tuberculosis, 5, read-out: MIC (µg/ml) Mtb 5
[2] = system: MDR and XDR strains of M. tuberculosis; test: microbe, parasite or virus in culture; type: cell-based; details: Mycobacterium tuberculosis, read-out: MIC values across the resistant strains

SMILES | MIC (Mtb 365) [µg/mL] | MIC (Mtb 276) [µg/mL] | MIC (Mtb 352) [µg/mL] | MIC (Mtb 56) [µg/mL] | MIC (µg/ml) Mtb Erdmann [1] [µg/mL] | MIC (Mtb 5) [µg/mL] | MIC [2] [µg/mL]
CC[C@@H](CO)NCCN[C@@H](CC)CO [Ethambutol, reference compound] | 32 (≈ 157 µM) | 4 (≈ 19.6 µM) | 1 (≈ 4.89 µM) | 32 (≈ 157 µM) | 1 (≈ 4.89 µM) |  | 
NNC(=O)c1ccncc1 [INH, Isoniazid, reference compound] | 4 (≈ 29.2 µM) | 0.25 (≈ 1.82 µM) | 1 (≈ 7.29 µM) | 2 (≈ 14.6 µM) | 0.06 (≈ 0.438 µM) | 2 (≈ 14.6 µM) | 0.25 to 4 (≈ 1.82 to 29.2 µM)
COc1c(N2C[C@@H]3CCCN[C@@H]3C2)c(F)cc2c(=O)c(C(=O)O)cn(C3CC3)c12 [Moxifloxacin, reference compound] | 0.06 (≈ 0.149 µM) |  |  |  | 0.06 (≈ 0.149 µM) | 1 (≈ 2.49 µM) | 
CO[C@H]1/C=C/O[C@@]2(C)Oc3c(C)c(O)c4c(O)c(c(/C=N/N5CCN(C)CC5)c(O)c4c3C2=O)NC(=O)/C(C)=C\C=C\[C@H](C)[C@H](O)[C@@H](C)[C@@H](O)[C@@H](C)[C@H](OC(C)=O)[C@@H]1C [RIF, rifampin, reference compound] | 64 (≈ 77.8 µM) | 0.015 (≈ 0.0182 µM) | 0.001 (≈ 0.00122 µM) | 32 (≈ 38.9 µM) | 0.004 (≈ 0.00486 µM) | 8 (≈ 9.72 µM) | 
[H]/N=C(/N)N[C@H]1[C@H](O)[C@@H](O)[C@H](O[C@@H]2O[C@@H](C)[C@](O)(C=O)[C@H]2O[C@@H]2O[C@@H](CO)[C@H](O)[C@@H](O)[C@@H]2NC)[C@@H](N/C(N)=N\[H])[C@@H]1O [Streptomycin, reference compound] | 32 (≈ 55 µM) | 0.25 (≈ 0.43 µM) | 0.25 (≈ 0.43 µM) | 32 (≈ 55 µM) |  |  | 
